Measurements as given in ChEMBL document CHEMBL4507316 (2021).

How the values were obtained:
[1] = tested on: Proto-oncogene tyrosine-protein kinase receptor Ret (Homo sapiens), P07949 [Y791F]; experiment: RET Y791F ProQinase selectivity panel; settings: Compound concentration 1.0 uM
[2] = molecular target: Serine/threonine-protein kinase 4 (Homo sapiens) (UniProt Q13043); experiment: MST1 ProQinase selectivity panel; settings: Compound concentration 1.0 uM
[3] = molecular target: 5-hydroxytryptamine receptor 1B (Homo sapiens) (UniProt P28222); settings: Compound concentration 10.0 uM
[4] = molecular target: Eukaryotic translation initiation factor 2-alpha kinase 1 (Homo sapiens) (UniProt Q9BQI3); experiment: HRI ProQinase selectivity panel; settings: Compound concentration 1.0 uM
[5] = molecular target: cGMP-dependent protein kinase 1 (Homo sapiens) (UniProt Q13976); experiment: PRKG1 ProQinase selectivity panel; settings: Compound concentration 1.0 uM
[6] = molecular target: Platelet-derived growth factor receptor beta (Homo sapiens) (UniProt P09619); experiment: PDGFR-beta ProQinase selectivity panel; settings: Compound concentration 1.0 uM
[7] = molecular target: Mitogen-activated protein kinase kinase kinase 7 (Homo sapiens) (UniProt O43318); experiment: MAP3K7/MAP3K7IP1 ProQinase selectivity panel; settings: Compound concentration 1.0 uM
[8] = tested on: Hepatocyte growth factor receptor (Homo sapiens), P08581 [F1200I]; experiment: MET F1200I ProQinase selectivity panel; settings: Compound concentration 1.0 uM
[9] = molecular target: SRSF protein kinase 1 (Homo sapiens) (UniProt Q96SB4); experiment: SRPK1 ProQinase selectivity panel; settings: Compound concentration 1.0 uM
Chain of SRSF protein kinase 1 (Homo sapiens) (Q96SB4 whole entry): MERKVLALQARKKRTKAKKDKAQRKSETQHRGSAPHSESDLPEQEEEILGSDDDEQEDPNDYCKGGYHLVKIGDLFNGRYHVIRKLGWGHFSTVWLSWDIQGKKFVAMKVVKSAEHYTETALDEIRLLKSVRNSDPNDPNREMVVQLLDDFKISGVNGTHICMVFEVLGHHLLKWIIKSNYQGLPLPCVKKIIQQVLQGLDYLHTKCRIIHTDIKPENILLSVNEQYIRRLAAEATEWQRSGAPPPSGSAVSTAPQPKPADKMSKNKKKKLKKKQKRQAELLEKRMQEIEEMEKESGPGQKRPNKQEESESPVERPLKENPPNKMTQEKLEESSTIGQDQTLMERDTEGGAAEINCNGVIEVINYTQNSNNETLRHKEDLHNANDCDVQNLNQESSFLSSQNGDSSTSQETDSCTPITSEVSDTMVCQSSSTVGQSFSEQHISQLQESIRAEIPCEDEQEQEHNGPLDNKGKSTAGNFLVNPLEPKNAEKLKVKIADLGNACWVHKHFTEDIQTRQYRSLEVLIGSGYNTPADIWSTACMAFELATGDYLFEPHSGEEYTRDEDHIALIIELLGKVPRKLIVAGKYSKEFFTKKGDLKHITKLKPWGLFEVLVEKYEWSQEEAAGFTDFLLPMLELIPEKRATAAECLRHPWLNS

[10] = tested on: Tyrosine-protein kinase ABL1 (Homo sapiens), P00519 [E255K]; experiment: ABL1 E255K ProQinase selectivity panel; settings: Compound concentration 1.0 uM
[11] = molecular target: Misshapen-like kinase 1 (Homo sapiens) (UniProt Q8N4C8); experiment: MINK1 ProQinase selectivity panel; settings: Compound concentration 1.0 uM
[12] = molecular target: T1, GABA-A receptor; anion channel (Rattus norvegicus) (UniProt O09028+P15431+P18506+P18508+P19969+P20236+P23574+P23576+P28471+P28473+P30191+P62813+P63079+P63138+Q91ZM7+Q9ES14); settings: Compound concentration 10.0 uM
[13] = tested on: Hepatocyte growth factor receptor (Homo sapiens), P08581 [D1228N]; experiment: MET D1228N ProQinase selectivity panel; settings: Compound concentration 1.0 uM
[14] = molecular target: 3-phosphoinositide-dependent protein kinase 1 (Homo sapiens) (UniProt O15530); experiment: PDK1 ProQinase selectivity panel; settings: Compound concentration 1.0 uM
[15] = molecular target: Lymphokine-activated killer T-cell-originated protein kinase (Homo sapiens) (UniProt Q96KB5); experiment: PBK ProQinase selectivity panel; settings: Compound concentration 1.0 uM
[16] = molecular target: MAP kinase-interacting serine/threonine-protein kinase 1 (Homo sapiens) (UniProt Q9BUB5); experiment: MKNK1 ProQinase selectivity panel; settings: Compound concentration 1.0 uM
Chain of MAP kinase-interacting serine/threonine-protein kinase 1 (Homo sapiens) (Q9BUB5 whole entry, looked up): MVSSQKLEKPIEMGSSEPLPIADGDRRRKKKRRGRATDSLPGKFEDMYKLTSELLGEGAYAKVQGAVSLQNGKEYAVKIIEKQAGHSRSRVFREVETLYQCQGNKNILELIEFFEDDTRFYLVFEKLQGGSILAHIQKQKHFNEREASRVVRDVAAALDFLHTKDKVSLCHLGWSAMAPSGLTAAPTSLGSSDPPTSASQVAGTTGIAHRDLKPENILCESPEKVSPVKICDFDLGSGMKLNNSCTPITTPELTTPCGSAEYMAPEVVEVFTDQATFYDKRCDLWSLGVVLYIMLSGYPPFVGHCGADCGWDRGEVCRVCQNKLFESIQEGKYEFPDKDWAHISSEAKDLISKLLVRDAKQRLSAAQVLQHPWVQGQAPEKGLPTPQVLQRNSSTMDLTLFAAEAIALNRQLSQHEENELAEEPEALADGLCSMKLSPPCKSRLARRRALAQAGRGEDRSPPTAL

[17] = molecular target: Ephrin type-A receptor 1 (Homo sapiens) (UniProt P21709); experiment: EPHA1 ProQinase selectivity panel; settings: Compound concentration 1.0 uM
[18] = molecular target: Serine/threonine-protein kinase PAK 1 (Homo sapiens) (UniProt Q13153); experiment: PAK1 ProQinase selectivity panel; settings: Compound concentration 1.0 uM
[19] = molecular target: Dual specificity mitogen-activated protein kinase kinase 2 (Homo sapiens) (UniProt P36507); experiment: MEK2 ProQinase selectivity panel; settings: Compound concentration 1.0 uM
[20] = molecular target: Rhodopsin kinase GRK7 (Homo sapiens) (UniProt Q8WTQ7); experiment: GRK7 ProQinase selectivity panel; settings: Compound concentration 1.0 uM
[21] = molecular target: Tyrosine-protein kinase ABL1 (Homo sapiens) (UniProt P00519); experiment: ABL1 wt ProQinase selectivity panel; settings: Compound concentration 1.0 uM
[22] = molecular target: RAC-alpha serine/threonine-protein kinase (Homo sapiens) (UniProt P31749); experiment: AKT1 ProQinase selectivity panel; settings: Compound concentration 1.0 uM
[23] = molecular target: LIM domain kinase 2 (Homo sapiens) (UniProt P53671); experiment: LIMK2 ProQinase selectivity panel; settings: Compound concentration 1.0 uM
[24] = molecular target: Ephrin type-A receptor 4 (Homo sapiens) (UniProt P54764); experiment: EPHA4 ProQinase selectivity panel; settings: Compound concentration 1.0 uM
[25] = molecular target: DNA-dependent protein kinase catalytic subunit (Homo sapiens) (UniProt P78527); experiment: DNA-PK ProQinase selectivity panel; settings: Compound concentration 1.0 uM
[26] = molecular target: CDK6/cyclin D1 (Homo sapiens) (UniProt P24385+Q00534); experiment: CDK6/CycD1 ProQinase selectivity panel; assay type: protein-complex assay; settings: Compound concentration 1.0 uM
[27] = molecular target: Sodium-dependent dopamine transporter (Homo sapiens, UniProt Q01959); experiment: GPCRScan assay: inhibition of DAT; design: radioligand conc. used [nm] 3.6 – 16.0, parental cells stable HEK
Chain of Sodium-dependent dopamine transporter (Q01959 whole entry): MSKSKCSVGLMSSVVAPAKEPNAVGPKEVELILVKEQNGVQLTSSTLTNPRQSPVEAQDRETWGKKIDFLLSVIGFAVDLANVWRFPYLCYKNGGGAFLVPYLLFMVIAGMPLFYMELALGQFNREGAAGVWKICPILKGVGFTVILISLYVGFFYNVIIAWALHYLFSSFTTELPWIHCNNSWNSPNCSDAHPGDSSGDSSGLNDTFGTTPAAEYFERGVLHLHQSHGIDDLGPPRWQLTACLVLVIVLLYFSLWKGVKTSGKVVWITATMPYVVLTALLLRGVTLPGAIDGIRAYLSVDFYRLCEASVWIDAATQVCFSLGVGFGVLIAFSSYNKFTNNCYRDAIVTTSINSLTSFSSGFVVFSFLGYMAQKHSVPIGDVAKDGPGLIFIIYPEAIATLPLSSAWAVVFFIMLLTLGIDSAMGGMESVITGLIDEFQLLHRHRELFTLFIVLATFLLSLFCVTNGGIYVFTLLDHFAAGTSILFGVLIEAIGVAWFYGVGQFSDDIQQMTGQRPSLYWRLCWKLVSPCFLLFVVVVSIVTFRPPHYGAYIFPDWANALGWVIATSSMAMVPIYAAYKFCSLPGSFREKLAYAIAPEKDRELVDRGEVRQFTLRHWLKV

[28] = molecular target: Protein kinase C epsilon type (Homo sapiens) (UniProt Q02156); experiment: PKC-epsilon ProQinase selectivity panel; settings: Compound concentration 1.0 uM
[29] = molecular target: Glycogen synthase kinase-3 beta (Homo sapiens) (UniProt P49841); experiment: GSK3-beta ProQinase selectivity panel; settings: Compound concentration 1.0 uM
[30] = molecular target: Histamine H3 receptor (Homo sapiens) (UniProt Q9Y5N1); settings: Compound concentration 10.0 uM
[31] = molecular target: Aurora kinase C (Homo sapiens) (UniProt Q9UQB9); experiment: Aurora-C ProQinase selectivity panel; settings: Compound concentration 1.0 uM
[32] = molecular target: Megakaryocyte-associated tyrosine-protein kinase (Homo sapiens) (UniProt P42679); experiment: MATK ProQinase selectivity panel; settings: Compound concentration 1.0 uM
[33] = molecular target: Alpha-1A adrenergic receptor (Homo sapiens) (UniProt P35348); settings: Compound concentration 10.0 uM
[34] = molecular target: Aurora kinase B (Homo sapiens) (UniProt Q96GD4); experiment: Aurora-B ProQinase selectivity panel; settings: Compound concentration 1.0 uM
[35] = molecular target: Phosphorylase b kinase gamma catalytic chain, skeletal muscle/heart isoform (Homo sapiens) (UniProt Q16816); experiment: PHKG1 ProQinase selectivity panel; settings: Compound concentration 1.0 uM
[36] = molecular target: Inhibitor of nuclear factor kappa-B kinase subunit alpha (Homo sapiens) (UniProt O15111); experiment: IKK-alpha ProQinase selectivity panel; settings: Compound concentration 1.0 uM
[37] = molecular target: Calcium/calmodulin-dependent protein kinase kinase 1 (Homo sapiens) (UniProt Q8N5S9); experiment: CAMKK1 ProQinase selectivity panel; settings: Compound concentration 1.0 uM
[38] = tested on: Hepatocyte growth factor receptor (Homo sapiens), P08581 [Y1235D]; experiment: MET Y1235D ProQinase selectivity panel; settings: Compound concentration 1.0 uM
Chain of Hepatocyte growth factor receptor (Homo sapiens), P08581 [Y1235D] (P08581 whole entry Y1235D): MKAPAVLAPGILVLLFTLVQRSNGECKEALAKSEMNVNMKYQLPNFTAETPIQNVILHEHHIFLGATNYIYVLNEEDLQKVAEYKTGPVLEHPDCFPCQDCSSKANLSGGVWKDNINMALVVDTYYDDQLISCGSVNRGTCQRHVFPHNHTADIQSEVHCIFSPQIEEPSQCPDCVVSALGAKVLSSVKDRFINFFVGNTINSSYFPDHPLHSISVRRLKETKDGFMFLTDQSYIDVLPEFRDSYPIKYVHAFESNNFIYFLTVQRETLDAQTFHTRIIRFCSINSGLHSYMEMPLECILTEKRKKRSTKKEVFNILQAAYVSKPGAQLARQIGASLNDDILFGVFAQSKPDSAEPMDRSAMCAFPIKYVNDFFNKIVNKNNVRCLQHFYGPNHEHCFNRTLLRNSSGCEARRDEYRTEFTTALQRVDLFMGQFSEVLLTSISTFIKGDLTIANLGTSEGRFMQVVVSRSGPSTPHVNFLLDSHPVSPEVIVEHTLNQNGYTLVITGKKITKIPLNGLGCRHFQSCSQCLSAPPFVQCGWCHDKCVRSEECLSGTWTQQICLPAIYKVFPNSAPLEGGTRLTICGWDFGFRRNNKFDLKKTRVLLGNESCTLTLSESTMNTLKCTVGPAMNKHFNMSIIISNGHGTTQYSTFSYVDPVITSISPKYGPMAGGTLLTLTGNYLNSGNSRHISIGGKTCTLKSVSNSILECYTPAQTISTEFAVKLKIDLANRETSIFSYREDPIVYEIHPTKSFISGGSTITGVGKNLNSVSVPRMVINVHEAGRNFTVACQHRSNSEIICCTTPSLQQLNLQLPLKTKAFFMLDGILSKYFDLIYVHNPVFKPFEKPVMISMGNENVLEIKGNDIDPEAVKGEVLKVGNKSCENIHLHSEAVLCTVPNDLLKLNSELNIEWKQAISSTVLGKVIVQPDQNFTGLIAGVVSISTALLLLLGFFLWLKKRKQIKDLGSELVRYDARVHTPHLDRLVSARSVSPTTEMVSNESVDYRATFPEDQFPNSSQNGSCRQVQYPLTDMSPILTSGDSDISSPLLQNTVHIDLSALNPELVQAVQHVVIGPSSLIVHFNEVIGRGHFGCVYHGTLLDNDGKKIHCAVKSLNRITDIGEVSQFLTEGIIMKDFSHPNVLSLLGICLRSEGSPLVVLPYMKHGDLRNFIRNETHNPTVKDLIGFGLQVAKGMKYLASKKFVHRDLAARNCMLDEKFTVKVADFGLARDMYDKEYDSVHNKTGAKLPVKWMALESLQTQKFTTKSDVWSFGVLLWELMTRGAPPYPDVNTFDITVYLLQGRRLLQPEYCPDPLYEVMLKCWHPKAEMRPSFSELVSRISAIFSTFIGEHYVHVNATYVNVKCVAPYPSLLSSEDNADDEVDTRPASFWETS

[39] = molecular target: Mitogen-activated protein kinase kinase kinase kinase 5 (Homo sapiens) (UniProt Q9Y4K4); experiment: MAP4K5 ProQinase selectivity panel; settings: Compound concentration 1.0 uM
Chain of Mitogen-activated protein kinase kinase kinase kinase 5 (Homo sapiens) (Q9Y4K4 whole entry, looked up): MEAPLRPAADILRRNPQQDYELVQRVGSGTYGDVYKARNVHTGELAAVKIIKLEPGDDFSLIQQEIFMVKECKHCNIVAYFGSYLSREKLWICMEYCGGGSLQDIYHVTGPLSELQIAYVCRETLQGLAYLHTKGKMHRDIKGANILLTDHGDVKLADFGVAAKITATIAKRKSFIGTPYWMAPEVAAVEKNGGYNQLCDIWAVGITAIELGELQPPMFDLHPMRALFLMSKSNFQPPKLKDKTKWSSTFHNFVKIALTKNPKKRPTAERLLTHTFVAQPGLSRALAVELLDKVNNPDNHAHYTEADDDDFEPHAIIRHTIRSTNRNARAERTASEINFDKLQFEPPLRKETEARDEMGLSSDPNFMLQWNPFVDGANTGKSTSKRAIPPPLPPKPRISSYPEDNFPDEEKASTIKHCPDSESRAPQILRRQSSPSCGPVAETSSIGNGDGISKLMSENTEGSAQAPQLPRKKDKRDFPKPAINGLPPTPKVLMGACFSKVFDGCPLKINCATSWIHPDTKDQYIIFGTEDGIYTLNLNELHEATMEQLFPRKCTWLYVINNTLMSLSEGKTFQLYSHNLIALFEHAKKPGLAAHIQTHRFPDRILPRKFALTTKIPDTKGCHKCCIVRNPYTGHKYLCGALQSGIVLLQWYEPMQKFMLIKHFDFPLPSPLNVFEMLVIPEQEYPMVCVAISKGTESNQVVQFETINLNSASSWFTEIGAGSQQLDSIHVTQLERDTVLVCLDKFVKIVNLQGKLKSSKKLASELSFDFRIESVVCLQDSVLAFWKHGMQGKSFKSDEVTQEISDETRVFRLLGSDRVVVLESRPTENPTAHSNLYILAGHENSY

[40] = molecular target: T1, GABA-A receptor; anion channel (Rattus norvegicus); settings: Compound concentration 10.0 uM; remark: listed apart in the source
[41] = molecular target: 5-hydroxytryptamine receptor 1A (Homo sapiens) (UniProt P08908); settings: Compound concentration 10.0 uM
[42] = molecular target: Calcium/calmodulin-dependent protein kinase kinase 2 (Homo sapiens) (UniProt Q96RR4); experiment: CAMKK2 ProQinase selectivity panel; settings: Compound concentration 1.0 uM
[43] = molecular target: Mitogen-activated protein kinase kinase kinase 11 (Homo sapiens) (UniProt Q16584); experiment: MAP3K11 ProQinase selectivity panel; settings: Compound concentration 1.0 uM
[44] = molecular target: NT-3 growth factor receptor (Homo sapiens) (UniProt Q16288); experiment: TRK-C ProQinase selectivity panel; settings: Compound concentration 1.0 uM
[45] = tested on: Epidermal growth factor receptor (Homo sapiens), P00533 [UNDEFINED MUTATION]; experiment: EGF-R d752-759 ProQinase selectivity panel; settings: Compound concentration 1.0 uM

Chain of Proto-oncogene tyrosine-protein kinase receptor Ret (Homo sapiens), P07949 [Y791F] (P07949 whole entry Y791F): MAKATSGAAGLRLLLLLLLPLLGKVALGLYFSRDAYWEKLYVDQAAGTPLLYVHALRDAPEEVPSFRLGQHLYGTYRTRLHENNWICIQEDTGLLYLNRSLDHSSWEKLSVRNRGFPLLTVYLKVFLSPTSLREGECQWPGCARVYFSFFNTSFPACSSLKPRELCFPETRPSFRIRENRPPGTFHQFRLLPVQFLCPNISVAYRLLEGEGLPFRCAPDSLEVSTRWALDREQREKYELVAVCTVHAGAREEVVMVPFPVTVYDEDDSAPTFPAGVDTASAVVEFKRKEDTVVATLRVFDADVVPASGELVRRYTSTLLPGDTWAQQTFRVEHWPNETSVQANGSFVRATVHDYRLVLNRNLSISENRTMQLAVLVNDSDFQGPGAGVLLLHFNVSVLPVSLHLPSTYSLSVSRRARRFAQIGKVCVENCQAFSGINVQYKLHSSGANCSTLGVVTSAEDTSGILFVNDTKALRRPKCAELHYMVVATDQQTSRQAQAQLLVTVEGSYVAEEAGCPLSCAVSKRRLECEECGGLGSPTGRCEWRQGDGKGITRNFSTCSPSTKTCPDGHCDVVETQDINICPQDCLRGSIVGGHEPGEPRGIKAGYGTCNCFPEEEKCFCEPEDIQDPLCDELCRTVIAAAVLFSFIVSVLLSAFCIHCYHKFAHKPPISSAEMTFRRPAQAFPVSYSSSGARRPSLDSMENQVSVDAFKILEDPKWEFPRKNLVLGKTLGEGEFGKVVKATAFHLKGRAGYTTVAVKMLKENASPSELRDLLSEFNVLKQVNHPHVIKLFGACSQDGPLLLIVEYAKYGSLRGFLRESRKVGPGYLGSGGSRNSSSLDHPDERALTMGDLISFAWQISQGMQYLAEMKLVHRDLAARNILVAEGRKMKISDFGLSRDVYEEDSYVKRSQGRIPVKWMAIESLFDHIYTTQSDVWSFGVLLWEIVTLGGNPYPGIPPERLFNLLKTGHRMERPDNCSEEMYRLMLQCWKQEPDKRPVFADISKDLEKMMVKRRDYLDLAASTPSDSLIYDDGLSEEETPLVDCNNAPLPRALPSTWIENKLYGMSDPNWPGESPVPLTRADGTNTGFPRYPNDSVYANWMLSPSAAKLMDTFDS

O=C1c2ccc(Nc3ccc(F)cc3F)cc2CCc2ccc(OC[C@H](O)CO)cc21 [Skepinone-L]
> 10 µM: Ki [27]
inactive: % Residual activity with Skepinone-L [1] 141% | % Residual activity with Skepinone-L [2] 71% | inhibition [3] 15.2% | % Residual activity with Skepinone-L [4] 106% | % Residual activity with Skepinone-L [5] 110% | % Residual activity with Skepinone-L [6] 96% | % Residual activity with Skepinone-L [7] 80% | % Residual activity with Skepinone-L [8] 96% | % Residual activity with Skepinone-L [9] 100% | % Residual activity with Skepinone-L [10] 105% | % Residual activity with Skepinone-L [11] 94% | inhibition [12] 12.8% | % Residual activity with Skepinone-L [13] 95% | % Residual activity with Skepinone-L [14] 97% | % Residual activity with Skepinone-L [15] 113% | % Residual activity with Skepinone-L [16] 69% | % Residual activity with Skepinone-L [17] 115% | % Residual activity with Skepinone-L [18] 100% | % Residual activity with Skepinone-L [19] 99% | % Residual activity with Skepinone-L [20] 107% | % Residual activity with Skepinone-L [21] 95% | % Residual activity with Skepinone-L [22] 102% | % Residual activity with Skepinone-L [23] 100% | % Residual activity with Skepinone-L [24] 93% | % Residual activity with Skepinone-L [25] 82% | % Residual activity with Skepinone-L [26] 88% | % Residual activity with Skepinone-L [28] 99% | % Residual activity with Skepinone-L [29] 97% | inhibition [30] 10.9% | % Residual activity with Skepinone-L [31] 85% | % Residual activity with Skepinone-L [32] 111% | inhibition [33] 21.8% | % Residual activity with Skepinone-L [34] 96% | % Residual activity with Skepinone-L [35] 93% | % Residual activity with Skepinone-L [36] 88% | % Residual activity with Skepinone-L [37] 83% | % Residual activity with Skepinone-L [38] 114% | % Residual activity with Skepinone-L [39] 84% | inhibition [40] 8.2% | inhibition [41] 40.5% | % Residual activity with Skepinone-L [42] 97% | % Residual activity with Skepinone-L [43] 114% | % Residual activity with Skepinone-L [44] 120% | % Residual activity with Skepinone-L [45] 83%
< 5: pKi [27]
